Laboratory results taken from US10827945B2, “Radiologically identified tumor habitats” (H. LEE MOFFITT CANCER CENTER AND RESEARCH INSTITUTE, INC., priority 2014, dated 2020).

Legend:
[1] = tested on: soft tissue sarcomas (STS); conditions: across all histological sub-types of STS; cited from earlier work
[2] = tested on: osteosarcoma xenotransplants; test: Osteosarcoma xenotransplant models, ADC (diffusion MRI) and tumor response; format: in vivo, mouse; conditions: for anti-tumor response: osteosarcoma xenotransplants; for shift of ADC histograms: within 48 hr following treatment
Excerpt: Combined MRI and histology image analyses were used to examine effects of dasatinib+Tcn in a Ewings sarcoma model; and the response to a novel Wee-1 checkpoint inhibitor, MK1775, alone and in combination with gemcitabine in osteosarcoma xenotransplants [Kreahling J M, et al. Mol Cancer Ther. 2012 11(1):174-82; Kreahling J M, et al. PloS one. 2013 8(3):e57523]. In the Ewing's model, the pre-therapy spin-echo T2 and post-therapy response of ADC were compared to tumor volume changes.
In the osteosarcoma xenotransplant models, the change in ADC was measured following treatment with gemcitabine and the wee-1 inhibitor MK-1775, alone and in combination. […] The change in ADC was highly correlated with tumor growth rate response. Also, the shapes of the histograms changed with response, going from Gaussian to a log-normal distributions, with increased skewness.
At a deeper level of analysis, the ADC maps were analyzed for image entropy, which is calculated as the randomness of a 3×3 pixel matrix surrounding the pixel under test (P-U-T).

[3] = tested on: orthotopically implanted MiaPaCa2 PDAC cells; test: DCE-MRI/diffusion MRI in orthotopically implanted MiaPaCa2 PDAC; format: in vivo; conditions: orthotopic MiaPaCa2
Excerpt: (§1) In a parallel study, DCE-MRI and Diffusion MRI were investigated as response biomarkers to TH-302 in flank implanted MiaPaCa2 pancreatic adenocarcinoma (PDAC) models. […] 2012 30(7):1002-9]. In a follow-on study, orthotopically implanted Hs766t, MiaPaCa2 and Su.86.86 PDAC cells were used, which have differential sensitivities to TH-302 as monotherapy.

[4] = based on phase I data; cited from earlier work
[5] = tested on: orthotopically implanted Su.86.86 PDAC cells; test: DCE-MRI/diffusion MRI in orthotopically implanted Su.86.86 PDAC; format: in vivo; conditions: orthotopic Su.86.86
Excerpt: as §1

[6] = tested on: regions of profound hypoxia; conditions: cited from earlier work
[7] = tested on: orthotopically implanted Hs766t PDAC cells; test: DCE-MRI/diffusion MRI in orthotopically implanted Hs766t PDAC; format: in vivo; conditions: orthotopic Hs766t
Excerpt: as §1

[8] = tested on: flank implanted MiaPaCa2 pancreatic adenocarcinoma (PDAC); conditions: cited from earlier work
[9] = tested on: tumors in KPC mice; conditions: KPC (KrasG12D; p53R172H; Pdx1-Cre) GEMM; cited from earlier work

## COc1cccc2c1C(=O)c1c(O)c3c(c(O)c1C2=O)C[C@@](O)(C(=O)CO)C[C@@H]3O[C@H]1C[C@H](N)[C@H](O)[C@H](C)O1 [DOX, doxorubicin]
[1]
  response rate: 25-40%

## C=CCn1c(=O)c2cnc(Nc3ccc(N4CCN(C)CC4)cc3)nc2n1-c1cccc(C(C)(C)O)n1 [MK-1775]
[2]
  anti-tumor response: non-responsive
  shift of ADC histograms: not
[2]; listed as MK1775
  anti-tumor response: did not

## Cn1c(COP(=O)(NCCBr)NCCBr)cnc1[N+](=O)[O-] [TH-302]
[3]
  Ktrans in response to treatment: decreases
  mean ADC: no changes
  sensitivity as monotherapy: responsive
[4]
  tolerability: well-tolerated
[5]
  Ktrans in response to treatment: not
  mean ADC: no changes
  sensitivity as monotherapy: resistant
[6]
  pO2 at which the warhead is released: < 10 mm Hg
[7]
  Ktrans in response to treatment: decreases
  mean ADC: no changes
  sensitivity as monotherapy: responsive
[8]; at any time point
  ADC (diffusion MRI): no differences
[8]; initial change, strongly correlated with tumor control
  Ktrans (DCE-MRI): drop

## Nc1ccn([C@@H]2O[C@H](CO)[C@@H](O)C2(F)F)c(=O)n1 [gemcitabine]
[9]
  sensitivity of tumors: generally resistant
[2]; compared to controls (p=0.022) and MK1775 (p=0.023)
  change in average ADC-entropy values from pre-treatment: statistically larger variations in ADC values
[2]
  anti-tumor response: robust anti-tumor response
  shift of ADC histograms: shifted to the right
[2]; listed as Gem
  anti-tumor response: responded to therapy
